# Test system: Human peripheral blood mononuclear cell (PBMC) cultures
# Assay: CD69 and CD25 expression in human PBMC cultures, direct effects
# Format: cell-based
# Settings: direct effect, 24 hours, vs untreated control; extract at the highest dose
# Experimental: Next, the immune-modulating effects of the extract were tested. Human peripheral blood mononuclear cell (PBMC) cultures were used for this testing. A set of cultures were left untreated as negative control cultures for immune activation. Triplicate sets of cultures were treated with serial dilutions of the test product. The inflammatory bacterial lipopolysaccharide LPS from E. coli was used as a positive control for activation. The cultures were incubated for 24 hours, after which the cells and the culture supernatants were harvested and used to monitor the reactions in each culture. The cells were used for immunostaining and flow cytometry, specifically to evaluate the induction of two activation markers, CD69 and CD25, on NK cells, NKT cells, T lymphocytes, and monocytes/macrophages.
substance,measurement,value
Poly I:C,CD69 expression on NK cells,increase

# — patent publication US20230084354A1, “NUTRACEUTICAL EXTRACTS OF HIPPOPHAE RHAMNOIDES AND TERMINALIA CHEBULA AND USES THEREOF” (Biomics, LLC, priority 2020, published 2023)
